In ChEMBL document CHEMBL3046957, “Synthesis of new oxadiazole derivatives as anti-inflammatory, analgesic, and antimicrobial agents” (2013):

Experiments:
Type in all cases: functional
Rattus norvegicus [1] = assay: Anti-inflammatory activity in Wistar albino Rattus norvegicus (rat) assessed as inhibition of carrageenan-induced paw edema at 10 mg/kg, po administered 30 min prior to carrageenan challenge measured after 1.5 hr by plethysmometric analysis relative to untreated control
Escherichia coli [2] = assay: Antibacterial activity against Escherichia coli assessed as growth inhibition at 50 ug/mL after 24 to 48 hr by cup-plate method; conditions: read-out: DIZ
Rattus norvegicus [3] = assay: Anti-inflammatory activity in Wistar albino Rattus norvegicus (rat) assessed as inhibition of carrageenan-induced paw edema at 10 mg/kg, po administered 30 min prior to carrageenan challenge measured after 0.5 hr by plethysmometric analysis relative to untreated control
Mus musculus [4] = assay: Analgesic activity in Swiss albino Mus musculus (mouse) assessed as latency time of heat-induced paw licking/jumping behaviour at 10 mg/kg after 4 hr by Eddy's hot plate method (reference value: 4.57 +/- 0.11 secs)
Rattus norvegicus [5] = assay: Anti-inflammatory activity in Wistar albino Rattus norvegicus (rat) assessed as inhibition of carrageenan-induced paw edema at 10 mg/kg, po administered 30 min prior to carrageenan challenge measured after 1 hr by plethysmometric analysis relative to untreated control
Mus musculus [6] = assay: Analgesic activity in Swiss albino Mus musculus (mouse) assessed as latency time of heat-induced paw licking/jumping behaviour at 10 mg/kg after 1 hr by Eddy's hot plate method (reference value: 4.74 +/- 0.21 secs)
Pseudomonas aeruginosa [7] = assay: Antibacterial activity against Pseudomonas aeruginosa assessed as growth inhibition at 100 ug/mL after 24 to 48 hr by cup-plate method; conditions: read-out: DIZ
Bacillus subtilis [8] = assay: Antibacterial activity against Bacillus subtilis assessed as growth inhibition at 50 ug/mL after 24 to 48 hr by cup-plate method; conditions: read-out: DIZ
Candida albicans [9] = assay: Antifungal activity against Candida albicans assessed as growth inhibition at 50 ug/mL after 24 hr by cup-plate method; conditions: read-out: DIZ
Escherichia coli [10] = assay: Antibacterial activity against Escherichia coli assessed as growth inhibition at 100 ug/mL after 24 to 48 hr by cup-plate method; conditions: read-out: DIZ
Aspergillus niger [11] = assay: Antifungal activity against Aspergillus niger assessed as growth inhibition at 100 ug/mL after 24 hr by cup-plate method; conditions: read-out: DIZ
Mus musculus [12] = assay: Analgesic activity in Swiss albino Mus musculus (mouse) assessed as latency time of heat-induced paw licking/jumping behaviour at 10 mg/kg after 2 hr by Eddy's hot plate method (reference value: 4.86 +/- 0.18 secs)
Staphylococcus aureus [13] = assay: Antibacterial activity against Staphylococcus aureus assessed as growth inhibition at 50 ug/mL after 24 to 48 hr by cup-plate method; conditions: read-out: DIZ
Aspergillus niger [14] = assay: Antifungal activity against Aspergillus niger assessed as growth inhibition at 50 ug/mL after 24 hr by cup-plate method; conditions: read-out: DIZ
Staphylococcus aureus [15] = assay: Antibacterial activity against Staphylococcus aureus assessed as growth inhibition at 100 ug/mL after 24 to 48 hr by cup-plate method; conditions: read-out: DIZ
Pseudomonas aeruginosa [16] = assay: Antibacterial activity against Pseudomonas aeruginosa assessed as growth inhibition at 50 ug/mL after 24 to 48 hr by cup-plate method; conditions: read-out: DIZ
Bacillus subtilis [17] = assay: Antibacterial activity against Bacillus subtilis assessed as growth inhibition at 100 ug/mL after 24 to 48 hr by cup-plate method; conditions: read-out: DIZ
Rattus norvegicus [18] = assay: Anti-inflammatory activity in Wistar albino Rattus norvegicus (rat) assessed as inhibition of carrageenan-induced paw edema at 10 mg/kg, po administered 30 min prior to carrageenan challenge measured after 3 hr by plethysmometric analysis relative to untreated control
Mus musculus [19] = assay: Analgesic activity in Swiss albino Mus musculus (mouse) assessed as latency time of heat-induced paw licking/jumping behaviour at 10 mg/kg after 0.5 hr by Eddy's hot plate method (reference value: 4.17 +/- 0.04 secs)
Candida albicans [20] = assay: Antifungal activity against Candida albicans assessed as growth inhibition at 100 ug/mL after 24 hr by cup-plate method; conditions: read-out: DIZ
Rattus norvegicus [21] = assay: Anti-inflammatory activity in Wistar albino Rattus norvegicus (rat) assessed as inhibition of carrageenan-induced paw edema at 10 mg/kg, po administered 30 min prior to carrageenan challenge measured after 2 hr by plethysmometric analysis relative to untreated control

Row | SMILES | inhibition in vivo at 10 mg/kg (Rattus norvegicus [1]) [%] | zone of inhibition at 50 µg/mL (Escherichia coli [2]) [mm] | inhibition in vivo at 10 mg/kg (Rattus norvegicus [3]) [%] | Time (Mus musculus [4]) [s] | inhibition in vivo at 10 mg/kg (Rattus norvegicus [5]) [%] | Time (Mus musculus [6]) [s] | zone of inhibition at 100 µg/mL (Pseudomonas aeruginosa [7]) [mm] | zone of inhibition at 50 µg/mL (Bacillus subtilis [8]) [mm] | zone of inhibition at 50 µg/mL (Candida albicans [9]) [mm] | zone of inhibition at 100 µg/mL (Escherichia coli [10]) [mm] | zone of inhibition at 100 µg/mL (Aspergillus niger [11]) [mm] | Time (Mus musculus [12]) [s] | zone of inhibition at 50 µg/mL (Staphylococcus aureus [13]) [mm] | zone of inhibition at 50 µg/mL (Aspergillus niger [14]) [mm] | zone of inhibition at 100 µg/mL (Staphylococcus aureus [15]) [mm] | zone of inhibition at 50 µg/mL (Pseudomonas aeruginosa [16]) [mm] | zone of inhibition at 100 µg/mL (Bacillus subtilis [17]) [mm] | inhibition in vivo at 10 mg/kg (Rattus norvegicus [18]) [%] | Time (Mus musculus [19]) [s] | inhibition in vivo at 10 mg/kg (Rattus norvegicus [21]) [%] | further results
1 | COc1ccc(F)cc1-c1cccc(-c2nn(CCCN3C(=O)c4ccccc4C3=O)c(=O)o2)c1 | 49 | 15 | 19 | 4.01 | 30 | 4.11 | 19 | 13 | 6 | 18 | 10 | 4.01 | 10 | 7 | 16 | 13 | 18 | 64 | 4.75 | 61 | zone of inhibition at 100 µg/mL (Candida albicans [20]): 10 mm
2 | COc1ccc(F)cc1-c1cccc(-c2nn(CCOS(=O)(=O)c3ccc(Cl)c(Cl)c3)c(=O)o2)c1 | 51 | 12 | 25 | 5.55 | 39 | 4.48 | 15 | 10 | 3 | 19 | 10 | 5.72 | 12 | 7 | 15 | 12 | 17 | 66 | 4.95 | 64 | zone of inhibition at 100 µg/mL (Candida albicans [20]): 9 mm
3 | CC(C)=CCN1CCC2(C)c3cc(O)ccc3CC1C2C (stereo unspecified) [PENTAZOCINE] | – | – | – | 7.85 | – | 5.93 | – | – | – | – | – | 8.06 | – | – | – | – | – | – | 5.58 | – | –
4 | CN[C@@H]1[C@H](O[C@H]2[C@H](O[C@H]3[C@H](O)[C@@H](O)[C@H](N=C(N)N)[C@@H](O)[C@@H]3N=C(N)N)O[C@@H](C)[C@]2(O)C=O)O[C@@H](CO)[C@H](O)[C@H]1O [STREPTOMYCIN] | – | 21 | – | – | – | – | 25 | – | – | 25 | – | – | – | – | – | 21 | – | – | – | – | –
5 | COc1ccc(F)cc1-c1cccc(-c2nn(CCO)c(=O)o2)c1 | 53 | 18 | 28 | 5.59 | 41 | 4.36 | 20 | 13 | 4 | 19 | 10 | 6.88 | 14 | 9 | 16 | 18 | 18 | 75 | 4.96 | 69 | zone of inhibition at 100 µg/mL (Candida albicans [20]): 8 mm
6 | O=C(O)Cc1ccccc1Nc1c(Cl)cccc1Cl [DICLOFENAC SODIUM] | 65 | – | 35 | – | 49 | – | – | – | – | – | – | – | – | – | – | – | – | 90 | – | 77 | –
